Here are results for 43 molecules from patent publication US9834558B2, “Substituted bridged urea analogs as sirtuin modulators” (GLAXOSMITHKLINE LLC, priority 2013, dated 2017).

Where only a bound is given, the exact number is not on record here.

One assay addresses T1, SIRT1 (Homo sapiens, UniProt Q96EB6).
T1 sequence (Q96EB6 1-747): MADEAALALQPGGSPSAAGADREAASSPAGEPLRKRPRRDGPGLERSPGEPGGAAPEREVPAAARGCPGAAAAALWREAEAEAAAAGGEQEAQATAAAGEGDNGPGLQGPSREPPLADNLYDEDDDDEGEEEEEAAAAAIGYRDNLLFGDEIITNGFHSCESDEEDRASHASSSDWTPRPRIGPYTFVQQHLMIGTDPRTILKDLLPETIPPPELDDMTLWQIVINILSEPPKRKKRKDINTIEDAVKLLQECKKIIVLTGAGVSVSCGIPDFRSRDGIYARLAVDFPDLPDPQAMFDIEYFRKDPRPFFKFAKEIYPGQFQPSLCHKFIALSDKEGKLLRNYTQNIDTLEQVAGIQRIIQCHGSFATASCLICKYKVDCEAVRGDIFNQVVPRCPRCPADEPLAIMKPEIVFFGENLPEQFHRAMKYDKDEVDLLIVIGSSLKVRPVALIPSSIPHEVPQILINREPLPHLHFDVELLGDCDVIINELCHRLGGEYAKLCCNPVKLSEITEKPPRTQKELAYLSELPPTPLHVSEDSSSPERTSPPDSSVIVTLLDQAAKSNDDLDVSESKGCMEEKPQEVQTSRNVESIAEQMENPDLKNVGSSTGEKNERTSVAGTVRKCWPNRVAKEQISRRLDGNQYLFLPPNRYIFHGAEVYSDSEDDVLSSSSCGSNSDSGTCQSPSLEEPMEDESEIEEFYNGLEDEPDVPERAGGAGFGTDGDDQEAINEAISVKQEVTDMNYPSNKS
Put plainly: Trp mass spectrometry assay of SIRT1 activation. In kind it is biochemical. The following applies: Trp peptide assay; EC1.5 = concentration that results in 150% activation of SIRT1. The method in brief:
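Activation read-out: mass-spec measurement of O-acetyl-ADP-ribose or deacetylated Trp peptide versus compound-free controls, giving EC1.5 and Percent Maximum Activation. Reactions ran 25 min at 25 °C, pH 7.5, with 120 μM βNAD+, 0.5 μM acetylated p53-derived peptide and 10 nM His-tagged SIRT1.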
For `O=C(Nc1ccccn1)N1c2nc(N3CC[C@H](C(F)(F)F)C3)ccc2N2CCC[C@H]1C2` [drawing 1101, (9S)-N-(pyridin-2-yl)-5-[(3S)-3-(trifluoromethyl)pyrrolidin-1-yl]-1,6,8-triazatricyclo[7.3.1.0 {2,7}]trideca-2(7),3,5-triene-8-carboxamide], the “TRP Activity (EC1.5)” value is “B (B (EC1.5 1-25 μM))”.

The same assay, now with this note: concentration giving 150% activation of SIRT1; Trp peptide substrate.
As to `NCCCCCC(=O)NCc1cccc(NC(=O)N2c3nc(-c4cccc(C(F)(F)F)c4)ccc3N3CCC[C@H]2C3)c1` [Example 756], the “Tryp AVG EC1.5 (μM)” value is reported as “A (A (EC1.5<1 μM))”.

Regarding `NCc1cccc(NC(=O)N2c3nc(-c4cccc(C(F)(F)F)c4)ccc3N3CCC[C@H]2C3)c1` [Example 757], the “Tryp AVG EC1.5 (μM)” value is given as “A (A (EC1.5<1 μM))”.

On to `NCCCCCC(=O)NCc1cccc(NC(=O)N2c3nc(-c4cccc(C(F)(F)F)c4)ccc3N3CC[C@H]2C3)c1` [Example 758], for which the “Tryp AVG EC1.5 (μM)” value is on record as “A (A (EC1.5<1 μM))”.

Regarding `CC(C)(C)OC(=O)NCCCc1cc(NC(=O)N2c3nc(-c4cccc(C(F)(F)F)c4)ccc3N3CC[C@H]2C3)cc(-c2cnco2)c1` [Example 759], the “Tryp AVG EC1.5 (μM)” value was “B (B (EC1.5 1-25 μM))”.

As to `CC(C)(C)OC(=O)NCC#Cc1cc(NC(=O)N2c3nc(-c4cccc(C(F)(F)F)c4)ccc3N3CCC[C@H]2C3)cc(-c2cnco2)c1` [Example 760], the “Tryp AVG EC1.5 (μM)” value is reported as “A (A (EC1.5<1 μM))”.

In the case of `FC(F)(F)c1cccc(-c2ccc3c(n2)N(C(=S)Nc2cccc(-c4cnco4)c2)[C@H]2CCN3C2)c1` [Example 763], the “Tryp AVG EC1.5 (μM)” value was “A (A (EC1.5<1 μM))”.

Take `NCCCc1ccc(NC(=O)N2c3nc(-c4cccc(C(F)(F)F)c4)ccc3N3CC[C@H]2C3)cc1-c1cnco1` [Example 765]: the “Tryp AVG EC1.5 (μM)” value is “A (A (EC1.5<1 μM))”.

As to `NCC#Cc1ccc(NC(=O)N2c3nc(-c4cccc(C(F)(F)F)c4)ccc3N3CC[C@H]2C3)cc1-c1cnco1` [Example 766], the “Tryp AVG EC1.5 (μM)” value was “A (A (EC1.5<1 μM))”.

Take `NCCCc1ccc(NC(=O)N2c3nc(-c4cccc(C(F)(F)F)c4)ccc3N3CCC[C@H]2C3)cc1-c1cnco1` [Example 767]: the “Tryp AVG EC1.5 (μM)” value is listed as “A (A (EC1.5<1 μM))”.

Turning to `NCCCc1cc(NC(=O)N2c3nc(-c4cccc(C(F)(F)F)c4)ccc3N3CCC[C@H]2C3)cc(-c2cnco2)c1` [Example 770], the “Tryp AVG EC1.5 (μM)” value is on record as “A (A (EC1.5<1 μM))”.

`N=C(N)NCc1ncc(-c2cccc(NC(=O)N3c4nc(-c5cccc(C(F)(F)F)c5)ccc4N4CC[C@H]3C4)c2)o1` [Example 776]: the “Tryp AVG EC1.5 (μM)” value is reported as “A (A (EC1.5<1 μM))”.

As for `N=C(N)NCc1ccc(NC(=O)N2c3nc(-c4cccc(C(F)(F)F)c4)ccc3N3CCC[C@H]2C3)cc1` [Example 777], the “Tryp AVG EC1.5 (μM)” value is listed as “A (A (EC1.5<1 μM))”.

Take `O=C(Nc1ccccn1)N1c2cc(-c3cccc(C(F)(F)F)c3)ccc2N2CC[C@H]1C2` [Example 785]: the “Tryp AVG EC1.5 (μM)” value is given as “C (C (EC1.5>25 μM))”.

With `O=C(Nc1cccc(-c2cnco2)c1)N1c2cc(-c3cccc(C(F)(F)F)c3)ccc2N2CC[C@H]1C2` [Example 786], the “Tryp AVG EC1.5 (μM)” value is “B (B (EC1.5 1-25 μM))”.

`CC(C)(C)OC(=O)NCCNC(=N)c1ccc(NC(=O)N2c3nc(-c4cccc(C(F)(F)F)c4)ccc3N3CCC[C@H]2C3)cc1` [Example 788]: the “Tryp AVG EC1.5 (μM)” value is listed as “A (A (EC1.5<1 μM))”.

For the molecule `CC(=O)NCc1ccc(NC(=O)N2c3nc(-c4cccc(C(F)(F)F)c4)ccc3N3CCC[C@H]2C3)cc1` [Example 790], the “Tryp AVG EC1.5 (μM)” value is listed as “A (A (EC1.5<1 μM))”.

For the molecule `N=C(NCCN)c1ccc(NC(=O)N2c3nc(-c4cccc(C(F)(F)F)c4)ccc3N3CCC[C@H]2C3)cc1` [Example 792], the “Tryp AVG EC1.5 (μM)” value was “A (A (EC1.5<1 μM))”.

Regarding `CC(C)(C)OC(=O)NCc1ccc(NC(=O)N2c3nc(-c4cccc(C(F)(F)F)c4)ccc3N3CC[C@H]2C3)cc1` [Example 793], the “Tryp AVG EC1.5 (μM)” value is “B (B (EC1.5 1-25 μM))”.

Turning to `CC(C)(C)OC(=O)NCc1cccc(-c2ccc3c(n2)N(C(=O)Nc2ccncc2)[C@H]2CCN3C2)c1` [Example 794], the “Tryp AVG EC1.5 (μM)” value is listed as “B (B (EC1.5 1-25 μM))”.

Consider `CC(C)(C)OC(=O)NCc1cccc(-c2ccc3c(n2)N(C(=O)Nc2ccncc2)[C@H]2CCCN3C2)c1` [Example 795], for which the “Tryp AVG EC1.5 (μM)” value was “B (B (EC1.5 1-25 μM))”.

`O=C(NCc1ccc(NC(=O)N2c3nc(-c4cccc(C(F)(F)F)c4)ccc3N3CC[C@H]2C3)cc1)OC[C@@H]1[C@@H]2CCC#CCC[C@@H]21` [Example 796]: the “Tryp AVG EC1.5 (μM)” value was “B (B (EC1.5 1-25 μM))”.

For `C#CCOc1cccc(NC(=O)N2c3nc(-c4cccc(C5(C(F)(F)F)N=N5)c4)ccc3N3CC[C@H]2C3)c1` [Example 797], the “Tryp AVG EC1.5 (μM)” value is given as “A (A (EC1.5<1 μM))”.

Regarding `C#CCCCNc1nccc(NC(=O)N2c3nc(-c4ccc(C5(C(F)(F)F)N=N5)cc4)ccc3N3CC[C@H]2C3)n1` [Example 798], the “Tryp AVG EC1.5 (μM)” value is reported as “A (A (EC1.5<1 μM))”.

Regarding `[N-]=[N+]=NCC(=O)NCc1ccc(NC(=O)N2c3nc(-c4cccc(C(F)(F)F)c4)ccc3N3CC[C@H]2C3)cc1` [Example 799], the “Tryp AVG EC1.5 (μM)” value was “A (A (EC1.5<1 μM))”.

With `C#CCOc1cc(-c2ccc3c(n2)N(C(=O)Nc2cccc(C4(C(F)(F)F)N=N4)c2)[C@H]2CCN3C2)cc(C(F)(F)F)c1` [Example 800], the “Tryp AVG EC1.5 (μM)” value is recorded as “C (C (EC1.5>25 μM))”.

For the molecule `C#CCCCNc1nccc(NC(=O)N2c3nc(-c4cccc(C5(C(F)(F)F)N=N5)c4)ccc3N3CC[C@H]2C3)n1` [Example 801], the “Tryp AVG EC1.5 (μM)” value is reported as “A (A (EC1.5<1 μM))”.

`C#CCOc1cccc(NC(=O)N2c3nc(-c4ccc(C5(C(F)(F)F)N=N5)cc4)ccc3N3CC[C@H]2C3)c1` [Example 802]: the “Tryp AVG EC1.5 (μM)” value is “B (B (EC1.5 1-25 μM))”.

Take `C#Cc1ccc(NC(=O)N2c3nc(-c4cccc(C5(C(F)(F)F)N=N5)c4)ccc3N3CC[C@H]2C3)nc1` [Example 803]: the “Tryp AVG EC1.5 (μM)” value is given as “A (A (EC1.5<1 μM))”.

As to `C#CCNc1nccc(NC(=O)N2c3nc(-c4cccc(C5(C(F)(F)F)N=N5)c4)ccc3N3CC[C@H]2C3)n1` [Example 804], the “Tryp AVG EC1.5 (μM)” value was “A (A (EC1.5<1 μM))”.

For the molecule `C#CCNc1nccc(NC(=O)N2c3nc(-c4ccc(C5(C(F)(F)F)N=N5)cc4)ccc3N3CC[C@H]2C3)n1` [Example 805], the “Tryp AVG EC1.5 (μM)” value is given as “B (B (EC1.5 1-25 μM))”.

`[N-]=[N+]=Nc1cc(N=[N+]=[N-])cc(-c2ccc3c(n2)N(C(=O)Nc2ccc(F)cn2)[C@H]2CCN3C2)c1` [Example 806]: the “Tryp AVG EC1.5 (μM)” value is listed as “A (A (EC1.5<1 μM))”.

As for `C#Cc1ccc(NC(=O)N2c3nc(-c4ccc(C5(C(F)(F)F)N=N5)cc4)ccc3N3CC[C@H]2C3)nc1` [Example 807], the “Tryp AVG EC1.5 (μM)” value is recorded as “C (C (EC1.5>25 μM))”.

As for `[N-]=[N+]=NCc1cc(N=[N+]=[N-])cc(-c2ccc3c(n2)N(C(=O)Nc2cnccn2)[C@H]2CCN3C2)c1` [Example 808], the “Tryp AVG EC1.5 (μM)” value is given as “A (A (EC1.5<1 μM))”.

Take `C#CNc1nccc(NC(=O)N2c3nc(-c4cccc(C5(C(F)(F)F)N=N5)c4)ccc3N3CC[C@H]2C3)n1` [Example 809]: the “Tryp AVG EC1.5 (μM)” value is reported as “B (B (EC1.5 1-25 μM))”.

On to `O=C(Nc1ccncc1)N1c2nc(-c3cccc(C(F)(F)F)c3)ccc2N2CC[C@H]1C2` [Example 817], for which the “Tryp AVG EC1.5 (μM)” value is “A (A (EC1.5<1 μM))”.

As to `O=C(Nc1ccnc(OC[C@H](O)CO)n1)N1c2nc(-c3cccc(C(F)(F)F)c3)ccc2N2CC[C@H]1C2` [Example 818], the “Tryp AVG EC1.5 (μM)” value is reported as “A (A (EC1.5<1 μM))”.

Take `O=C(Nc1cccc(OC[C@H](O)CO)n1)N1c2nc(-c3cccc(C(F)(F)F)c3)ccc2N2CC[C@H]1C2` [Example 819]: the “Tryp AVG EC1.5 (μM)” value is “A (A (EC1.5<1 μM))”.

With `O=C(Nc1ccccn1)N1c2nc(-c3cccc(C(F)(F)F)c3)ccc2N2CCC[C@H]1C2` [Example 820], the “Tryp AVG EC1.5 (μM)” value was “A (A (EC1.5<1 μM))”.

`O=C(Nc1ccncc1)N1c2nc(-c3cccc(C(F)(F)F)c3)ccc2N2CCC[C@H]1C2` [Example 821]: the “Tryp AVG EC1.5 (μM)” value is listed as “A (A (EC1.5<1 μM))”.

Regarding `O=C(Nc1cccnn1)N1c2nc(-c3cccc(Cl)c3)ccc2N2CC[C@H]1C2` [Example 822], the “Tryp AVG EC1.5 (μM)” value is on record as “A (A (EC1.5<1 μM))”.

Take `O=C(Nc1ccccn1)N1c2nc(-c3cccc(C(F)(F)F)c3)ccc2N2CC[C@@H]1C2` [Example 823]: the “Tryp AVG EC1.5 (μM)” value is “A (A (EC1.5<1 μM))”.

For the molecule `O=C(Nc1ccncc1)N1c2nc(-c3cccc(C(F)(F)F)c3)ccc2N2CC[C@@H]1C2` [Example 824], the “Tryp AVG EC1.5 (μM)” value was “A (A (EC1.5<1 μM))”.

The same assay, now with this note: percent maximum fold activation of SIRT1; Trp peptide substrate; read-out: Tryp % Fold Act.
With `NCCCc1cc(NC(=O)N2c3nc(-c4cccc(C(F)(F)F)c4)ccc3N3CCC[C@H]2C3)cc(-c2cnco2)c1` [Example 770], the Emax is over 150%.

On to `CC(C)(C)OC(=O)NCc1cccc(-c2ccc3c(n2)N(C(=O)Nc2ccncc2)[C@H]2CCN3C2)c1` [Example 794], for which the Emax was over 150%.

In the case of `C#CCCCNc1nccc(NC(=O)N2c3nc(-c4ccc(C5(C(F)(F)F)N=N5)cc4)ccc3N3CC[C@H]2C3)n1` [Example 798], the Emax is over 150%.

Consider `[N-]=[N+]=Nc1cc(N=[N+]=[N-])cc(-c2ccc3c(n2)N(C(=O)Nc2ccc(F)cn2)[C@H]2CCN3C2)c1` [Example 806], for which the Emax was over 150%.

For the molecule `C#CNc1nccc(NC(=O)N2c3nc(-c4cccc(C5(C(F)(F)F)N=N5)c4)ccc3N3CC[C@H]2C3)n1` [Example 809], the Emax is over 150%.

Take `O=C(Nc1ccnc(OC[C@H](O)CO)n1)N1c2nc(-c3cccc(C(F)(F)F)c3)ccc2N2CC[C@H]1C2` [Example 818]: the Emax was over 150%.
